By EC50 is commonly meant the concentration at which the effect is half-maximal. A high value points to lower potency in that assay.

Molecules are shown by their SMILES.

Assay [1] addresses T1, Oxysterols receptor LXR-alpha (Homo sapiens, UniProt Q13133).
T1 sequence (Q13133 whole entry): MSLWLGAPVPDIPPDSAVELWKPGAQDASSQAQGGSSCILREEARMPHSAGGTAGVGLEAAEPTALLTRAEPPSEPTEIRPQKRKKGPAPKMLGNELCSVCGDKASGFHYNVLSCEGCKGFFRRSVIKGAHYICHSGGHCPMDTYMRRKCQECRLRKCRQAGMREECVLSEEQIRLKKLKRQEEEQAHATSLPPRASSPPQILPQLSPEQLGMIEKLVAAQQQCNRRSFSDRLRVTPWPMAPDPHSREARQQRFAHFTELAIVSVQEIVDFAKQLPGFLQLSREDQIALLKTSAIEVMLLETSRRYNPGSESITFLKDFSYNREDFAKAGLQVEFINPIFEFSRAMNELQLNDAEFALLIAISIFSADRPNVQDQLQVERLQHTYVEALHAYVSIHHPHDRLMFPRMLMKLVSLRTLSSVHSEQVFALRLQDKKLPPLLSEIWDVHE
As to the kind of experiment: Cell-Free Ligand Sensing Assay (LiSA)-LXRalpha-SRC1 Assay. Particulars: pH 7.5; 22 °C. As to the method:
(§1) The LXR LiSA measures the ligand-dependent recruitment of a 25 amino acid fragment of the steroid receptor coactivator 1 (SRC1) to the ligand-binding domain of the receptor. The biotinylated protein was incubated with streptavidin-AlloPhycoCyanin, biotinylated SRC-1 peptide, and streptavidin-labeled europium. The fluorescence resonance energy transfer was then counted on a Wallac Victor fluorescent plate reader in a time-resolved mode.

Assay [2] concerns the target T2, Oxysterols receptor LXR-beta (Homo sapiens, UniProt P55055).
T2 sequence (P55055 whole entry): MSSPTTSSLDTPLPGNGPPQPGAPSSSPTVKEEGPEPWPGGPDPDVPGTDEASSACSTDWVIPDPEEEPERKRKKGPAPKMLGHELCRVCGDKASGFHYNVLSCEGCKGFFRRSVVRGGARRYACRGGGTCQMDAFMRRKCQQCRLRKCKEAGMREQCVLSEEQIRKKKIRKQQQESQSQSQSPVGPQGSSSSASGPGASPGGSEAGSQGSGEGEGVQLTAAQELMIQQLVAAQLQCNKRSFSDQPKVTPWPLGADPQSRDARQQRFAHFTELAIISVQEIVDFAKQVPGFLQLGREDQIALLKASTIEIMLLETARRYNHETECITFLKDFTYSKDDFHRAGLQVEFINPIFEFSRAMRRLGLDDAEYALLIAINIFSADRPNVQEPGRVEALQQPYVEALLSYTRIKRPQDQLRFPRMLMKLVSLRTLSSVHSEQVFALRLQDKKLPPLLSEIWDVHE
As to the kind of experiment: Cell-Free Ligand Sensing Assay (LiSA)-LXRbeta-SRC1 Assay. Particulars: pH 7.5; 22 °C. As to the method:
as §1

For `COc1ccc(N=C2C(=O)N(c3ccccc3)C(=O)C2c2ccccc2)cc1` (configuration not stated) [3-[(4-methoxyphenyl)amino]-1,4-diphenyl-2,5-dihydro-1H-pyrrole-2,5-dione], the concentration for a half-maximal effect (EC50) in assay [1] was determined as 0.275 µM; in assay [2] it was 0.26 µM.

The values above are taken from BindingDB's records for doi:10.1021/jm050532w (Glaxosmithkline, 2005).
